Columns and labels:
Assay type in all cases: cell-based
T98G = test: CCK-8 cell viability assay, T98G; details: Homo sapiens, T98G, 72 h, CCK-8, 72 h, mean ± SD of three independent experiments
Method: (§1) The U87MG cell line (catalogue iCell-h224) and U251MG cell line (catalogue iCell-h219) were purchased from iCell Bioscience Inc (Shanghai) cell bank. T98G cell line was obtained from Yining Zhang’s group. All cells were cultured in DMEM supplemented with 10% (v/v) FBS and penicillin-streptomycin in a humidified incubator at 37 °C under 5% CO2. The different compounds were dissolved in DMSO at the concentration of 10 mM and diluted in serum-free medium. The GBM cells were seeded into 96-well microplates at the density of 6000 cells/well and incubated for 24 h. Fresh media supplemented with different concentrations of the compounds were added, and the cells were cultured for 72 h. The CCK-8 reagent (TargetMol, C0005) was added to each well and the cells were incubated for 4 h at 37 °C. […] the absorbance was measured at […] using a microplate reader (Genios Tecan). An untreated control group was included and its viability was set as 100%. IC50 value of the two probes was calculated using GraphPad Prism 5.0.

U87 = test: CCK-8 cell viability assay, U87; details: Homo sapiens, U-87 MG, 72 h, CCK-8, 72 h, mean ± SD of three independent experiments
Method: as §1

LO2 = test: CCK-8 cytotoxicity, normal human cell line LO2; details: L02, mean ± SD of three independent experiments
U251 = test: CCK-8 cell viability assay, U251; details: Homo sapiens, U-251, 72 h, CCK-8, 72 h, mean ± SD of three independent experiments
Method: as §1

Row | IC50 (U87) [µM] | IC50 (U251) [µM] | Compound | IC50 (T98G) [µM] | IC50 (LO2) [µM]
1 | 9.12 ± 0.43 | 9.01 ± 0.34 | Cc1cc(O)ccc1/C=C1/SC(NN=CC2=CCC3CC2C3(C)C)N(C)C1=O (stereo not shown) [C15, 2–(2-((6,6-Dimethylbicyclo[3.1.1]hept-2-en-2-yl)methylene)hydrazineyl)-5-((E)-4-hydroxy-2-methylbenzylidene)-3-methylthiazolidin-4-one] | 7.63 ± 0.65 | > 50
2 | 13.5 ± 0.43 | 12.1 ± 0.31 | COc1ccc(C=C2SC(=NN=CC3=CCC4CC3C4(C)C)N(C)C2=O)cc1 (stereo not shown) [C1, 2-(((6,6-Dimethylbicyclo[3.1.1]hept-2-en-2-yl)methylene)hydrazineylidene)-5–(4-methoxybenzylidene)-3-methylthiazolidin-4-one] | 9.93 ± 0.11 | > 50
3 | 42.2 ± 0.46 | 27.2 ± 0.62 | CCN(CC)c1ccc(C=C2SC(=NN=CC3=CCC4CC3C4(C)C)N(C)C2=O)cc1 (stereo not shown) [C8, 5–(4-(Diethylamino)benzylidene)-2-(((6,6-dimethylbicyclo[3.1.1]hept-2-en-2-yl)methylene) hydrazineylidene)-3-methylthiazolidin-4-one] | 38.1 ± 0.78 | > 50
4 | 14.4 ± 0.73 | 11.6 ± 0.89 | CN1C(=O)/C(=C\c2ccc(O)cc2F)SC1NN=CC1=CCC2CC1C2(C)C (stereo not shown) [C14, 2–(2-((6,6-Dimethylbicyclo[3.1.1]hept-2-en-2-yl)methylene)hydrazineyl)-5-((E)-2-fluoro-4-hydroxybenzylidene)-3-methylthiazolidin-4-one] | 14.8 ± 0.34 | > 50
5 | 5.83 ± 0.56 | 7.14 ± 0.11 | Cc1cc(/C=C2/SC(NN=CC3=CCC4CC3C4(C)C)N(C)C2=O)ccc1O (stereo not shown) [C16, 2–(2-((6,6-Dimethylbicyclo[3.1.1]hept-2-en-2-yl)methylene)hydrazineyl)-5-((E)-4-hydroxy-3-methylbenzylidene)-3-methylthiazolidin-4-one] | 6.63 ± 0.32 | > 50
6 | 9.37 ± 0.35 | 8.01 ± 0.79 | CCOc1cc(C=C2SC(=NN=CC3=CCC4CC3C4(C)C)N(C)C2=O)ccc1O (stereo not shown) [C12, 2-(((6,6-Dimethylbicyclo[3.1.1]hept-2-en-2-yl)methylene)hydrazineylidene)-5–(3-ethoxy-4-hydroxybenzylidene)-3-methylthiazolidin-4-one] | 7.1 ± 0.51 | > 50
7 | 5.71 ± 0.23 | 6.65 ± 0.75 | COc1ccc(C=C2SC(=NN=CC3=CCC4CC3C4(C)C)N(C)C2=O)c(O)c1 (stereo not shown) [C13, 2-(((6,6-Dimethylbicyclo[3.1.1]hept-2-en-2-yl)methylene)hydrazineylidene)-5–(2-hydroxy-4-methoxybenzylidene)-3-methylthiazolidin-4-one] | 5.54 ± 0.98 | > 50
8 | 34.1 ± 0.57 | 36.7 ± 0.32 | Cc1ccc(O)c(C=C2SC(=NN=CC3=CCC4CC3C4(C)C)N(C)C2=O)c1 (stereo not shown) [C9, 2-(((6,6-Dimethylbicyclo[3.1.1]hept-2-en-2-yl)methylene)hydrazineylidene)-5–(2-hydroxy-5-methylbenzylidene)-3-methylthiazolidin-4-one] | 32.11 ± 0.21 | > 50
9 | 13.6 ± 0.21 | 14.8 ± 0.1 | COc1ccc(C=C2SC(=NN=CC3=CCC4CC3C4(C)C)N(C)C2=O)cc1O (stereo not shown) [C11, 2-(((6,6-Dimethylbicyclo[3.1.1]hept-2-en-2-yl)methylene)hydrazineylidene)-5–(3-hydroxy-4-methoxybenzylidene)-3-methylthiazolidin-4-one] | 12 ± 0.15 | > 50
10 | 9.18 ± 0.2 | 6.23 ± 0.41 | COc1cc(O)ccc1/C=C1/SC(NN=CC2=CCC3CC2C3(C)C)N(C)C1=O (stereo not shown) [C17, 2–(2-((6,6-Dimethylbicyclo[3.1.1]hept-2-en-2-yl)methylene)hydrazineyl)-5-((E)-4-hydroxy-2-methoxybenzylidene)-3-methylthiazolidin-4-one] | 5.1 ± 0.26 | > 50
